Experimental data taken from patent publication US20250144067A1, “PERSONALIZED STARVATION THERAPY FOR CANCER” (Faeth Therapeutics, Inc., priority 2021, published 2025).
Counter-ions that a name gives are not always drawn.

What was measured:
[1] = tested on: NCI-H292 lung cancer cells; assay: FDA drug screening, complete media vs cholesterol-free media with simvastatin (TABLE 2); type: cell-based, human; conditions: for Cholesterol-free media + simvastatin (0.04 μM) / Complete Media: NCI-H292 cells
[2] = tested on: NCI-H292 lung cancer cells; assay: FDA drug screening, complete media vs cholesterol-free media without statin (TABLE 1); type: cell-based, human
[3] = drug in cholesterol-free media with simvastatin 0.04 μM
[4] = complete media vs cholesterol-free media + simvastatin (0.04 μM), >0 enhanced anti-cancer activity, about 0 neutral, <0 antagonist
[5] = NCI-H292 cells, cholesterol-free media without statin
[6] = complete vs cholesterol-free media, greater than 0 enhanced anti-cancer activity, about 0 neutral, below 0 antagonists
[7] = Complete minus Cholesterol-free, >0 enhanced anti-cancer activity, about 0 neutral, <0 antagonist
[8] = NCI-H292 cells, cholesterol-free media without statin, FDA drug library screen
[9] = NCI-H292 cells, complete media, FDA drug library screen
[10] = cholesterol-free media with simvastatin 0.04 μM, cell growth value in FDA drug screen
[11] = complete media, cell growth value in FDA drug screen
[12] = complete media minus cholesterol-free media + simvastatin, >0 enhanced anti-cancer activity, about 0 neutral, <0 antagonist
[13] = complete vs cholesterol-free media, >0 enhanced anti-cancer activity, about 0 neutral, <0 antagonist
[14] = FDA library drug in cholesterol-free media with simvastatin 0.04 μM
[15] = FDA library drug in complete media
[16] = cholesterol-free media with simvastatin 0.04 μM, FDA drug library screen (TABLE 2)
[17] = complete media, FDA drug library screen (TABLE 2)
[18] = complete media minus cholesterol-free media + simvastatin (0.04 μM), >0 enhanced anti-cancer activity, about 0 neutral, <0 antagonist
[19] = NCI-H292 cells in cholesterol-free media without statin
[20] = NCI-H292 cells in complete media
[21] = complete media minus cholesterol-free media + simvastatin, […]
[22] = Complete minus Cholesterol-free, […]
[23] = FDA drug library screen, cholesterol-free media with simvastatin 0.04 μM
[24] = FDA drug library screen, complete media

O=c1cc(-c2ccccc2)oc2cc(O)c(O)c(O)c12 [Baicalein]
Cholesterol-free media + simvastatin (0.04 μM) [1, 3]: 1.347
Complete Media ([1]; drug in complete media): 1.087
Difference [1, 4]: −0.26
Cholesterol-free [2, 5]: 1.261
Complete ([2]; NCI-H292 cells, complete media): 0.9313
Difference [2, 6]: −0.33

O=C(O)[C@H]1O[C@@H](Oc2cc3oc(-c4ccccc4)cc(=O)c3c(O)c2O)[C@H](O)[C@@H](O)[C@@H]1O [Baicalin]
Cholesterol-free media + simvastatin (0.04 μM) [1, 3]: 1.298
Complete Media ([1]; drug in complete media): 1.093
Difference [1, 4]: −0.20
Difference [2, 7]: −0.04
Cholesterol-free [2, 8]: 1.064
Complete [2, 9]: 1.025

O=C(O)CCNC(=O)c1ccc(/N=N/c2ccc(O)c(C(=O)O)c2)cc1 [Balsalazide]
Cholesterol-free media + simvastatin (0.04 μM) [1, 10]: 1.228
Complete Media [1, 11]: 1.264
Difference [1, 12]: 0.04
Cholesterol-free [2, 5]: 1.245
Complete ([2]; NCI-H292 cells, complete media): 0.9198
Difference [2, 6]: −0.33

CN(C)C(=O)Oc1cc(OC(=O)N(C)C)cc(C(O)CNC(C)(C)C)c1 (stereo not drawn) [Bambuterol hydrochloride]
Cholesterol-free media + simvastatin (0.04 μM) [1, 10]: 1.184
Complete Media [1, 11]: 1.226
Difference [1, 12]: 0.04
Cholesterol-free [2, 8]: 1.362
Complete [2, 9]: 1.472
Difference [2, 13]: 0.11

CCS(=O)(=O)N1CC(CC#N)(n2cc(-c3ncnc4[nH]ccc34)cn2)C1 [Baricitinib]
Cholesterol-free media + simvastatin (0.04 μM) [1, 14]: 1.286
Complete Media [1, 15]: 0.9674
Difference [1, 4]: −0.32
Difference [2, 7]: −0.22
Cholesterol-free [2, 5]: 0.7863
Complete ([2]; NCI-H292 cells, complete media): 0.5701

CCCCCCCCCCCCCCCCCCOCC(O)CO (stereo not drawn) [Batilol]
Cholesterol-free media + simvastatin (0.04 μM) [1, 16]: 0.9215
Complete Media [1, 17]: 0.9293
Difference [1, 18]: 0.01
Difference ([2]; Complete minus Cholesterol-free, greater than 0 enhanced anti-cancer activity, about 0 neutral, below 0 antagonists): −0.55
Cholesterol-free [2, 19]: 1.321
Complete [2, 20]: 0.7704

CCC(=O)OCC(=O)[C@@]1(OC(=O)CC)[C@@H](C)C[C@H]2[C@@H]3CCC4=CC(=O)C=C[C@]4(C)[C@@]3(Cl)[C@@H](O)C[C@@]21C [Beclometasone dipropionate]
Cholesterol-free media + simvastatin (0.04 μM) [1, 14]: 1.133
Complete Media [1, 15]: 0.8544
Difference [1, 4]: −0.28
Difference ([2]; Complete minus Cholesterol-free, greater than 0 enhanced anti-cancer activity, about 0 neutral, below 0 antagonist): −0.19
Cholesterol-free ([2]; NCI-H292 cells, FDA drug library screen, cholesterol-free media without statin): 1.005
Complete ([2]; NCI-H292 cells, FDA drug library screen, complete media): 0.8203

C[C@H]1C[C@H]2[C@@H]3CCC4=CC(=O)C=C[C@]4(C)[C@@]3(Cl)[C@@H](O)C[C@]2(C)[C@@]1(O)C(=O)CO [Beclometasone]
Cholesterol-free media + simvastatin (0.04 μM) ([1]; cholesterol-free media with simvastatin 0.04 μM, […]): 0.7122
Complete Media ([1]; complete media, […]): 0.7656
Difference [1, 21]: 0.05
Difference [2, 22]: −0.04
Cholesterol-free [2, 8]: 1.244
Complete [2, 9]: 1.205

COc1nc2ccc(Br)cc2cc1[C@@H](c1ccccc1)[C@@](O)(CCN(C)C)c1cccc2ccccc12 [Bedaquiline]
Cholesterol-free media + simvastatin (0.04 μM) [1, 10]: 1.492
Complete Media [1, 11]: 1.59
Difference [1, 12]: 0.10
Cholesterol-free [2, 8]: 0.6087
Complete [2, 9]: 1.472
Difference [2, 13]: 0.86

NC[C@H]1O[C@H](O[C@H]2[C@H](O)[C@@H](O[C@H]3O[C@H](CO)[C@@H](O)[C@H](N)[C@H]3O)[C@H](N)C[C@@H]2N)[C@H](N)[C@@H](O)[C@@H]1O [Bekanamycin]
Cholesterol-free media + simvastatin (0.04 μM) [1, 3]: 1.456
Complete Media ([1]; drug in complete media): 1.293
Difference [1, 4]: −0.16
Cholesterol-free [2, 8]: 0.873
Complete [2, 9]: 1.446
Difference [2, 13]: 0.57

O=C(/C=C/c1cccc(S(=O)(=O)Nc2ccccc2)c1)NO [Belinostat]
Cholesterol-free media + simvastatin (0.04 μM) [1, 23]: 0.2409
Complete Media [1, 24]: 0.1471
Difference [1, 4]: −0.09
Cholesterol-free [2, 8]: 0.07179
Complete [2, 9]: 0.1605
Difference [2, 13]: 0.09

CC[C@@]1(O)C(=O)OCc2c1cc1n(c2=O)Cc2c-1nc1ccccc1c2CCNC(C)C [Belotecan (hydrochloride)]
Cholesterol-free media + simvastatin (0.04 μM) [1, 16]: −0.0005237
Complete Media [1, 17]: 0.007701
Difference [1, 18]: 0.01
Difference [2, 7]: 0.00
Cholesterol-free [2, 8]: 0.00566
Complete [2, 9]: 0.01027

CCC1(C)CC(=O)NC(=O)C1 [Bemegride]
Cholesterol-free media + simvastatin (0.04 μM) [1, 23]: 0.8627
Complete Media [1, 24]: 1.013
Difference [1, 21]: 0.15
Difference [2, 22]: −0.76
Cholesterol-free [2, 19]: 1.658
Complete [2, 20]: 0.894
